How the values were obtained:
[1] = test system: NT2/D1 cells; test: Curcuminoid binding to NT2/D1 cells
Method: NT2/D1 cells were grown in 25 cm^2 flasks to a density of about 90% confluence (6 to 8 × 10^6 cells) with 6 ml of Dulbecco's Minimal Essential Medium (DMEM) containing 5% fetal calf serum (FCS). […] The remaining volume consisted of varying ratios of DMEM and mouse serum to generate dose curves with constant curcuminoid and variable serum concentrations. […] Cells were then washed three times in the flasks with 5 mL of 0.9% saline and then scraped into 1 ml of the same solution. The cell suspension was centrifuged at 3,000 × g for one minute and the supernatant removed. The cell pellet was resuspended in 1 ml of 0.6% saline and re-centrifuged. The final pellet was suspended in 0.4 ml of 0.6% saline and mixed with 0.8 ml of acetone. All samples were stored at -20°C for 2 to 16 h and processed for reversed phase chromatography as described above for tissue preparation.

[2] = cited from earlier work
[3] = parameters: method as in PMID 17340565; conditions: i.v. 10 mg/kg in DMA/PEG/dextrose, rats; read-out: initial plasma concentrations; cited from earlier work
[4] = parameters: method as in PMID 18417733; conditions: intramuscular 3 mg/kg, four hours after injection; cited from earlier work
[5] = HP-γ-CD-solubilized, dose curve ~50% BMAX, Figure 9B left
[6] = HP-γ-CD-solubilized, saturating (100% BMAX), 300 μM, no serum, Figure 9B middle
[7] = HP-γ-CD-solubilized, serum competition, 95% serum, Figure 9B right
[8] = mouse serum-solubilized, dose curve ~50% BMAX, Figure 9A left
[9] = mouse serum-solubilized, saturating (100% BMAX), 200 μM, 5% serum, Figure 9A middle
[10] = mouse serum-solubilized, serum competition, 100% serum, Figure 9A right

| Compound | relative contribution to cell-bound curcuminoids (percentage of the total) [1, 5] | relative contribution to cell-bound curcuminoids (percentage of the total) [1, 6] | relative contribution to cell-bound curcuminoids (percentage of the total) [1, 7] | relative contribution to cell-bound curcuminoids (percentage of the total) [1, 8] | relative contribution to cell-bound curcuminoids (percentage of the total) [1, 9] | relative contribution to cell-bound curcuminoids (percentage of the total) [1, 10] | plasma levels after oral administration [2] | C0 [3] | brain levels [4] |
| --- | --- | --- | --- | --- | --- | --- | --- | --- | --- |
| COc1cc(/C=C/C(O)=C/C(=O)/C=C/c2ccc(O)cc2)ccc1O [DMC, demethoxycurcumin] | 23% | 24% | 19% | 24% | 24% | 20% | – | – | – |
| bisdemethoxycurcumin [BDMC] | 35% | 48% | 26% | 27% | 15% | 15% | – | – | – |
| curcumin | 42% | 28% | 55% | 49% | 61% | 65% | ≤ 1 µM | ~27 µM | approximately 3.2 nmol/g |
